Structures are written as SMILES.

The logP is the decadic logarithm of the partition coefficient of the neutral form, usually between octanol and water. For the compound `Clc1cc(Cl)c(-c2c(Cl)ccc(Cl)c2Cl)cc1Cl`, the logP was found to be 6.46. For `Clc1cccc(-c2c(Cl)cc(Cl)c(Cl)c2Cl)c1Cl`, the logP is 6.43. `Clc1ccc(-c2cc(Cl)c(Cl)c(Cl)c2Cl)c(Cl)c1` returned a lipophilicity (logP) of 6.8.

In turn, `Clc1cc(Cl)c(Cl)c(-c2cc(Cl)c(Cl)c(Cl)c2)c1` gave a logP of 7.02.

Consider `Clc1cc(Cl)cc(-c2c(Cl)c(Cl)cc(Cl)c2Cl)c1`, for which the logP worked out at 6.68.

In turn, `Clc1cc(Cl)cc(-c2cc(Cl)c(Cl)c(Cl)c2Cl)c1` registered a lipophilicity (logP) of 7.01. The value for `Clc1ccccc1-c1c(Cl)c(Cl)c(Cl)c(Cl)c1Cl` was 6.49.

`Clc1cc(-c2c(Cl)cccc2Cl)c(Cl)c(Cl)c1Cl`: the logP came to 6.5. For the compound `Clc1cc(Cl)c(-c2cc(Cl)c(Cl)c(Cl)c2)c(Cl)c1`, the logP was 6.74.

With `Clc1cc(Cl)c(Cl)c(-c2c(Cl)ccc(Cl)c2Cl)c1`, the lipophilicity (logP) was found to be 6.41. Take `Clc1cc(Cl)c(-c2c(Cl)ccc(Cl)c2Cl)c(Cl)c1`: the logP came to 6.31. This logP and that of the compound before are within 0.2 log units of each other. As for `Clc1cc(Cl)c(Cl)c(-c2ccc(Cl)c(Cl)c2Cl)c1`, the logP is 6.79. Consider `Clc1cc(Cl)c(-c2c(Cl)cccc2Cl)c(Cl)c1Cl`, for which the logP turned out to be 6.28. The result for `Clc1cccc(-c2c(Cl)c(Cl)cc(Cl)c2Cl)c1Cl` reads 6.42; that for `Clc1ccc(-c2c(Cl)ccc(Cl)c2Cl)c(Cl)c1Cl`, 6.61.

The compound `Clc1ccc(-c2c(Cl)c(Cl)cc(Cl)c2Cl)c(Cl)c1` returned a log partition coefficient (logP) of 6.52. The result for `Clc1cc(Cl)c(Cl)c(-c2cc(Cl)c(Cl)cc2Cl)c1` reads 6.71; that for `Clc1ccc(-c2c(Cl)c(Cl)c(Cl)c(Cl)c2Cl)cc1`, 6.87. Compound `Clc1cc(Cl)c(-c2cc(Cl)cc(Cl)c2Cl)c(Cl)c1` had a logP of 6.45. `Clc1cc(Cl)cc(-c2c(Cl)cc(Cl)c(Cl)c2Cl)c1` yielded a logP of 6.68. The value for `Clc1cc(Cl)c(Cl)c(-c2cc(Cl)cc(Cl)c2Cl)c1` was 6.63.

The compound `Clc1cc(Cl)c(-c2cc(Cl)c(Cl)cc2Cl)c(Cl)c1` displayed a logP of 6.46. Take `Clc1cc(Cl)c(Cl)c(-c2c(Cl)cccc2Cl)c1Cl`: the logP is 6.1. In the case of `Clc1cccc(-c2c(Cl)c(Cl)c(Cl)c(Cl)c2Cl)c1`, the logP amounted to 6.84. Compound `Clc1ccc(Cl)c(-c2c(Cl)ccc(Cl)c2Cl)c1Cl` came in with a logP of 6.27.

(Values after the SangsterLogP compilation.)
